From US11858945B2, “Alkyne-containing antiviral agents” (Enanta Pharmaceuticals, Inc., priority 2021, dated 2024)

Target: SARS-CoV-2 3CL-protease (Severe acute respiratory syndrome coronavirus 2 (2019-nCoV) (SARS-CoV-2), UniProt P0DTD1)
Experiment: SARS-CoV-2 3C-like (3CL) protease fluorescence assay (FRET)
Assay type: biochemical
Conditions: recombinant SARS-CoV-2 3CL-protease 10 nM, 30 min preincubation at RT, peptide substrate, run in duplicate; IC50 ranges

Structure (SMILES) | IC50 [nM]
C#C[C@@H]1C[C@@]2(CN1C(=O)[C@H](CC(C)(C)F)NC(=O)c1cc3c(Cl)cccc3[nH]1)C(=O)Nc1ccccc12 [Compound 2, 4-chloro-N—((S)-1-((3R,5′S)-5′-ethynyl-2-oxospiro[indoline-3,3′-pyrrolidin]-1′-yl)-4-fluoro-4-methyl-1-oxopentan-2-yl)-1H-indole-2-carboxamide] | 100 to 1000
C#C[C@@H]1C[C@@]2(CN1C(=O)[C@H](CC(C)(C)F)NC(=O)c1cc3ccc(F)cc3[nH]1)C(=O)Nc1ccccc12 [Compound 9, N—((S)-1-((3R,5′S)-5′-ethynyl-2-oxospiro[indoline-3,3′-pyrrolidin]-1′-yl)-4-fluoro-4-methyl-1-oxopentan-2-yl)-6-fluoro-1H-indole-2-carboxamide] | < 100
C#C[C@@H]1C[C@@]2(CN1C(=O)[C@H](CC(C)(C)F)NC(=O)c1cc3cccnc3[nH]1)C(=O)Nc1ccccc12 [Compound 16, N—((S)-1-((3R,5′S)-5′-ethynyl-2-oxospiro[indoline-3,3′-pyrrolidin]-1′-yl)-4-fluoro-4-methyl-1-oxopentan-2-yl)-1H-pyrrolo[2,3-b]pyridine-2-carboxamide] | 100 to 1000
C#C[C@@H]1C[C@@]2(CN1C(=O)[C@H](CC(C)(C)F)NC(=O)c1cc3cccc(Cl)c3[nH]1)C(=O)Nc1ccccc12 [Compound 5, 7-chloro-N—((S)-1-((3R,5′S)-5′-ethynyl-2-oxospiro[indoline-3,3′-pyrrolidin]-1′-yl)-4-fluoro-4-methyl-1-oxopentan-2-yl)-1H-indole-2-carboxamide] | < 100
C#C[C@@H]1C[C@@]2(CN1C(=O)[C@H](CC(C)(C)F)NC(=O)c1cc3cc(C(F)(F)F)ccc3[nH]1)C(=O)Nc1ccccc12 [Compound 14, N—((S)-1-((3R,5′S)-5′-ethynyl-2-oxospiro[indoline-3,3′-pyrrolidin]-1′-yl)-4-fluoro-4-methyl-1-oxopentan-2-yl)-5-(trifluoromethyl)-1H-indole-2-carboxamide] | 100 to 1000
C#C[C@@H]1C[C@@]2(CN1C(=O)[C@H](CC(C)(C)F)NC(=O)c1cc3cc(F)ccc3o1)C(=O)Nc1ccccc12 [Compound 18, N—((S)-1-((3R,5′S)-5′-ethynyl-2-oxospiro[indoline-3,3′-pyrrolidin]-1′-yl)-4-fluoro-4-methyl-1-oxopentan-2-yl)-5-fluorobenzofuran-2-carboxamide] | > 1000
C#C[C@@H]1C[C@@]2(CN1C(=O)[C@H](CC(C)(C)F)NC(=O)c1cc3cc(F)c(F)c(F)c3[nH]1)C(=O)Nc1ccccc12 [Compound 12, N—((S)-1-((3R,5′S)-5′-ethynyl-2-oxospiro[indoline-3,3′-pyrrolidin]-1′-yl)-4-fluoro-4-methyl-1-oxopentan-2-yl)-5,6,7-trifluoro-1H-indole-2-carboxamide] | < 100
C#C[C@@H]1C[C@@]2(CN1C(=O)[C@H](CC(C)(C)F)NC(=O)c1cc3cccc(F)c3o1)C(=O)Nc1ccccc12 [Compound 17, N—((S)-1-((3R,5′S)-5′-ethynyl-2-oxospiro[indoline-3,3′-pyrrolidin]-1′-yl)-4-fluoro-4-methyl-1-oxopentan-2-yl)-7-fluorobenzofuran-2-carboxamide] | > 1000
C#C[C@@H]1C[C@@]2(CN1C(=O)[C@H](CC(C)(C)F)NC(=O)c1cc(F)c3ncccc3c1)C(=O)Nc1ccccc12 [Compound 19, N—((S)-1-((3R,5′S)-5′-ethynyl-2-oxospiro[indoline-3,3′-pyrrolidin]-1′-yl)-4-fluoro-4-methyl-1-oxopentan-2-yl)-8-fluoroquinoline-6-carboxamide] | > 1000
C#C[C@@H]1C[C@@]2(CN1C(=O)[C@H](CC(C)(C)F)NC(=O)c1cc3c(F)ccc(F)c3[nH]1)C(=O)Nc1ccccc12 [Compound 11, N—((S)-1-((3R,5′S)-5′-ethynyl-2-oxospiro[indoline-3,3′-pyrrolidin]-1′-yl)-4-fluoro-4-methyl-1-oxopentan-2-yl)-4,7-difluoro-1H-indole-2-carboxamide] | < 100
C#C[C@@H]1C[C@@]2(CN1C(=O)[C@H](CC(C)(C)F)NC(=O)c1cc3cccc(C(F)(F)F)c3[nH]1)C(=O)Nc1ccccc12 [Compound 13, N—((S)-1-((3R,5′S)-5′-ethynyl-2-oxospiro[indoline-3,3′-pyrrolidin]-1′-yl)-4-fluoro-4-methyl-1-oxopentan-2-yl)-7-(trifluoromethyl)-1H-indole-2-carboxamide] | < 100
C#C[C@@H]1C[C@@]2(CN1C(=O)[C@H](CC(C)(C)F)NC(=O)c1cc3c(Cl)cc(Cl)cc3[nH]1)C(=O)Nc1ccccc12 [Compound 6, 4,6-dichloro-N—((S)-1-((3R,5′S)-5′-ethynyl-2-oxospiro[indoline-3,3′-pyrrolidin]-1′-yl)-4-fluoro-4-methyl-1-oxopentan-2-yl)-1H-indole-2-carboxamide] | 100 to 1000
C#C[C@@H]1C[C@@]2(CN1C(=O)[C@H](CC(C)(C)F)NC(=O)c1c(Cl)cccc1Cl)C(=O)Nc1ccccc12 [Compound 21, 2,6-dichloro-N—((S)-1-((3R,5′S)-5′-ethynyl-2-oxospiro[indoline-3,3′-pyrrolidin]-1′-yl)-4-fluoro-4-methyl-1-oxopentan-2-yl)benzamide] | > 1000
C#C[C@@H]1C[C@@]2(CN1C(=O)[C@H](CC(C)(C)F)NC(=O)c1cc3cc(Cl)ccc3[nH]1)C(=O)Nc1ccccc12 [Compound 3, 5-chloro-N—((S)-1-((3R,5′S)-5′-ethynyl-2-oxospiro[indoline-3,3′-pyrrolidin]-1′-yl)-4-fluoro-4-methyl-1-oxopentan-2-yl)-1H-indole-2-carboxamide] | 100 to 1000
C#C[C@@H]1C[C@@]2(CN1C(=O)[C@H](CC(C)(C)F)NC(=O)c1cc3ccc(Cl)c(Cl)c3[nH]1)C(=O)Nc1ccccc12 [Compound 7, 6,7-dichloro-N—((S)-1-((3R,5′S)-5′-ethynyl-2-oxospiro[indoline-3,3′-pyrrolidin]-1′-yl)-4-fluoro-4-methyl-1-oxopentan-2-yl)-1H-indole-2-carboxamide] | < 100
C#C[C@@H]1C[C@@]2(CN1C(=O)[C@H](CC(C)(C)F)NC(=O)c1cc3cc(S(C)(=O)=O)ccc3[nH]1)C(=O)Nc1ccccc12 [Compound 1, N—((S)-1-((3R,5′S)-5′-ethynyl-2-oxospiro[indoline-3,3′-pyrrolidin]-1′-yl)-4-fluoro-4-methyl-1-oxopentan-2-yl)-5-(methylsulfonyl)-1H-indole-2-carboxamide] | 100 to 1000
C#C[C@@H]1C[C@@]2(CN1C(=O)[C@H](CC(C)(C)F)NC(=O)c1cc3cccc(F)c3[nH]1)C(=O)Nc1ccccc12 [Compound 8, N—((S)-1-((3R,5′S)-5′-ethynyl-2-oxospiro[indoline-3,3′-pyrrolidin]-1′-yl)-4-fluoro-4-methyl-1-oxopentan-2-yl)-7-fluoro-1H-indole-2-carboxamide] | < 100
C#C[C@@H]1C[C@@]2(CN1C(=O)[C@H](CC(C)(C)F)NC(=O)c1cc3cccc(C#N)c3[nH]1)C(=O)Nc1ccccc12 [Compound 15, 7-cyano-N—((S)-1-((3R,5′S)-5′-ethynyl-2-oxospiro[indoline-3,3′-pyrrolidin]-1′-yl)-4-fluoro-4-methyl-1-oxopentan-2-yl)-1H-indole-2-carboxamide] | < 100
C#C[C@@H]1C[C@@]2(CN1C(=O)[C@H](CC(C)(C)F)NC(=O)c1cc3ccc(Cl)cc3[nH]1)C(=O)Nc1ccccc12 [Compound 4, 6-chloro-N—((S)-1-((3R,5′S)-5′-ethynyl-2-oxospiro[indoline-3,3′-pyrrolidin]-1′-yl)-4-fluoro-4-methyl-1-oxopentan-2-yl)-1H-indole-2-carboxamide] | < 100
C#C[C@@H]1C[C@@]2(CN1C(=O)[C@H](CC(C)(C)F)NC(=O)c1cc3c(F)cc(F)cc3[nH]1)C(=O)Nc1ccccc12 [Compound 10, N—((S)-1-((3R,5′S)-5′-ethynyl-2-oxospiro[indoline-3,3′-pyrrolidin]-1′-yl)-4-fluoro-4-methyl-1-oxopentan-2-yl)-4,6-difluoro-1H-indole-2-carboxamide] | 100 to 1000
C#C[C@@H]1C[C@@]2(CN1C(=O)[C@H](CC(C)(C)F)NC(=O)c1cccc(OC(F)(F)F)c1)C(=O)Nc1ccccc12 [Compound 20, N—((S)-1-((3R,5′S)-5′-ethynyl-2-oxospiro[indoline-3,3′-pyrrolidin]-1′-yl)-4-fluoro-4-methyl-1-oxopentan-2-yl)-3-(trifluoromethoxy)benzamide] | 100 to 1000
